Target: T1, VEGFR2 (KDR) (Homo sapiens, UniProt P35968)
T1 construct: made in house; host or cells: Sf9 cells (Spodoptera frugiperda), baculovirus (Bac-to-Bac)
Assay: In Vitro Receptor Tyrosine Kinase Assay (VEGF Receptor KDR)
Type: biochemical
Details: recombinant GST-VEGFR2 806-1356, DELFIA assay, ATP 0.6 uM, enzyme 5 nM; read-out: VEGFR_IC50_UM
Description: In Vitro Receptor Tyrosine Kinase Assay (VEGF Receptor KDR)
This test measures the ability of compounds to inhibit the enzymatic activity of recombinant human VEGF receptor enzymatic activity.
A 1.6-kb cDNA corresponding to the catalytic domain of VEGFR2 (KDR) (Genbank accession number AF035121 amino acid 806 to 1356) is cloned into the Pst I site of the pDEST20 Gateway vector (Invitrogen) for the production of a GST-tagged version of that enzyme. This construct is used to generate recombinant baculovirus using the Bac-to-Bac™ system according to the manufacturer's instructions (Invitrogen).
The GST-VEGFR2806-1356 protein is expressed in Sf9 cells (Spodoptera frugiperda) upon infection with recombinant baculovirus construct. Briefly, Sf9 cells grown in suspension and maintained in serum-free medium (Sf900 II supplemented with gentamycin) at a cell density of about 2×10^6 cells/ml are infected with the above-mentioned viruses at a multiplicity of infection (MOI) of 0.1 during 72 hours at 27° C. with agitation at 120 rpm on a rotary shaker. Infected cells are harvested by centrifugation at 398 g for 15 min. Cell pellets are frozen at […] until purification is performed.
All steps described in cell extraction and purification are performed at 4° C. Frozen Sf9 cell pellets infected with the GST-VEGFR2806-1356 recombinant baculovirus are thawed and gently resuspended in Buffer A (PBS pH 7.3 supplemented with 1 μg/ml pepstatin, 2 μg/ml Aprotinin and leupeptin, 50 μg/ml PMSF, 50 μg/ml TLCK and 10 μM E64 and 0.5 mM DTT) using 3 ml of buffer per gram of cells. Suspension is Dounce homogenized and 1% Triton X-100 is added to the homogenate after which it is centrifuged at 22500 g, 30 min., 4° C. The supernatant (cell extract) is used as starting material for purification of GST-VEGFR2806-1356.
The supernatant is loaded onto a GST-agarose column (Sigma) equilibrated with PBS pH 7.3. Following a four column volume (CV) wash with PBS pH 7.3+1% Triton X-100 and 4 CV wash with buffer B (50 mM Tris pH 8.0, 20% glycerol and 100 mM NaCl), bound proteins are step eluted with 5 CV of buffer B supplemented with 5 mM DTT and 15 mM glutathion. GST-VEGFR2806-1356 enriched fractions from this chromatography step are pooled based on U.V. trace i.e. fractions with high O.D.280. Final GST-VEGFR2806-1356 protein preparations concentrations are about 0.7 mg/ml with purity approximating 70%. Purified GST-VEGFR2806-1356 protein stocks are aliquoted and frozen at −80° C. prior to use in enzymatic assay.
Inhibition of VEGFR/KDR is measured in a DELFIA™ assay (Perkin Elmer). The substrate poly(Glu4,Tyr) is immobilized onto black high-binding polystyrene 96-well plates. The coated plates are washed and stored at 4° C. During the assay, the enzyme is pre-incubated with inhibitor and Mg-ATP on ice in polypropylene 96-well plates for 4 minutes, and then transferred to the coated plates. The subsequent kinase reaction takes place at 30° C. for 10-minutes. ATP concentrations in the assay are 0.6 uM for VEGFR/KDR (2× the Km). Enzyme concentration is 5 nM. After incubation, the kinase reactions are quenched with EDTA and the plates are washed. Phosphorylated product is detected by incubation with Europium-labeled anti-phosphotyrosine MoAb. After washing the plates, bound MoAb is detected by time-resolved fluorescence in a Gemini SpectraMax reader (Molecular Devices). Compounds are evaluated over a range of concentrations, and IC50 values (concentration of compounds giving 50% inhibition of enzymatic activity) are determined.

T1 sequence (P35968 806-1356): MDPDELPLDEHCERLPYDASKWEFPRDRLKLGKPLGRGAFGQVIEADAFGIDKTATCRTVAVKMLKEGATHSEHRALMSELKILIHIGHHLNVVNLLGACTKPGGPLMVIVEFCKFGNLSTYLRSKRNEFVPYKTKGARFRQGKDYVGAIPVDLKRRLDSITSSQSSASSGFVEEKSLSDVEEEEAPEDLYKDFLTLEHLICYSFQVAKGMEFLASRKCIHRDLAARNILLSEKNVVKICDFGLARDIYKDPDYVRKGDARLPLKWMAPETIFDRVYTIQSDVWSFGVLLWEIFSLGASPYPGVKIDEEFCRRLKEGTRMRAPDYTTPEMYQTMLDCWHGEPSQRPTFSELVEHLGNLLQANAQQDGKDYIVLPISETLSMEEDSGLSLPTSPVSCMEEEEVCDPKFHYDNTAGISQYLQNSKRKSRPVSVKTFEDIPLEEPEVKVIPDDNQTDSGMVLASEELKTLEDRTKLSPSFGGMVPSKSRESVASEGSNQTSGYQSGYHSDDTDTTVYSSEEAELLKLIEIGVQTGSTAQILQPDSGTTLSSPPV

SMILES	IC50 [µM]
CC(=O)N1CC(NC(=O)Nc2ccc(Oc3ccnc4cc(-c5ccc(CN6CCC(NC(=O)OC(C)(C)C)CC6)cn5)sc34)c(F)c2)C1 [Compound 40, tert-Butyl 1-((6-(7-(4-(3-(1-acetylazetidin-3-yl)ureido)-2-fluorophenoxy)thieno[3,2-b]pyridin-2-yl)pyridin-3-yl)methyl)piperidin-4-ylcarbamate]	0.28
CC(=O)N1CC(NC(=O)Nc2ccc(Oc3ccnc4cc(-c5ccc(CN6CCC(N)CC6)cn5)sc34)c(F)c2)C1 [Compound 41, 1-(1-Acetylazetidin-3-yl)-3-(4-(2-(5-((4-aminopiperidin-1-yl)methyl)pyridin-2-yl)thieno[3,2-b]pyridin-7-yloxy)-3-fluorophenyl)urea]	0.078
CCNC(=O)NC1CCN(Cc2ccc(-c3cc4nccc(Oc5ccc(NC(=O)NC6CN(C(C)=O)C6)cc5F)c4s3)nc2)CC1 [Compound 44]	0.157
CC(=O)N1CC(NC(=O)Nc2ccc(Oc3ccnc4cc(-c5ccc(CN6CC(N)C6)cn5)sc34)c(F)c2)C1 [Compound 46]	0.13
CC(=O)N1CC(NC(=O)Nc2ccc(Oc3ccnc4cc(-c5ccc(CN6CC(NC(=O)CO)C6)cn5)sc34)c(F)c2)C1 [Compound 48]	0.062
CC(=O)N1CC(NC(=O)Nc2ccc(Oc3ccnc4cc(-c5ccc(CN6CCN(C)CC6)cn5)sc34)c(F)c2)C1 [Compound 51]	0.1
CN1CCN(Cc2ccc(-c3cc4nccc(Oc5ccc(NC(=O)NC6CN(C(=O)Cc7ccccc7)C6)cc5F)c4s3)nc2)CC1 [Compound 53]	0.058
CN1CCN(Cc2ccc(-c3cc4nccc(Oc5ccc(NC(=O)NC6CN(S(C)(=O)=O)C6)cc5F)c4s3)nc2)CC1 [Compound 54]	0.036
Cc1ccc(S(=O)(=O)N2CC(NC(=O)Nc3ccc(Oc4ccnc5cc(-c6ccc(CN7CCN(C)CC7)cn6)sc45)c(F)c3)C2)cc1 [Compound 55]	0.01
O=C(CO)N1CCN(Cc2ccc(-c3cc4nccc(Oc5ccc(Nc6nc7cc(Cl)ccc7[nH]6)cc5F)c4s3)nc2)CC1 [Compound 61, 1-(4-((6-(7-(4-(5-Chloro-1H-benzo[d]imidazol-2-ylamino)-2-fluorophenoxy)thieno[3,2-b]pyridin-2-yl)pyridin-3-yl)methyl)piperazin-1-yl)-2-hydroxyethanone]	0.056
CN1CCN(Cc2ccc(-c3cc4nccc(Oc5ccc(Nc6nc7cc(Cl)ccc7[nH]6)cc5F)c4s3)nc2)CC1 [Compound 62, 5-Chloro-N-(3-fluoro-4-(2-(5-((4-methylpiperazin-1-yl)methyl)pyridin-2-yl)thieno[3,2-b]pyridin-7-yloxy)phenyl)-1H-benzo[d]imidazol-2-amine]	0.044
COCCNCc1ccc(-c2cc3nccc(Oc4ccc(Nc5nc6cc(Cl)ccc6[nH]5)cc4F)c3s2)nc1 [Compound 63, 5-Chloro-N-(3-fluoro-4-(2-(5-((2-methoxyethylamino)methyl)pyridin-2-yl)thieno[3,2-b]pyridin-7-yloxy)phenyl)-1H-benzo[d]imidazol-2-amine]	0.268
COCCN(Cc1ccc(-c2cc3nccc(Oc4ccc(Nc5nc6cc(Cl)ccc6[nH]5)cc4F)c3s2)nc1)C(=O)CO [Compound 65, N-((6-(7-(4-(5-Chloro-1H-benzo[d]imidazol-2-ylamino)-2-fluorophenoxy)thieno[3,2-b]pyridin-2-yl)pyridin-3-yl)methyl)-2-hydroxy-N-(2-methoxyethyl)acetamide]	0.023
COCCN(Cc1ccc(-c2cc3nccc(Oc4ccc(NC(=O)NC5CN(C(=O)OC(C)(C)C)C5)cc4F)c3s2)nc1)C(=O)OC(C)(C)C [Compound 67, tert-Butyl 3-(3-(4-(2-(5-((tert-butoxycarbonyl(2-methoxyethyl)amino)methyl)pyridin-2-yl)thieno[3,2-b]pyridin-7-yloxy)-3-fluorophenyl)ureido)azetidine-1-carboxylate]	0.057
CCNC(=O)N(CCOC)Cc1ccc(-c2cc3nccc(Oc4ccc(NC(=O)NC5CN(C(=O)NCC)C5)cc4F)c3s2)nc1 [Compound 69, N-Ethyl-3-(3-(4-(2-(5-((3-ethyl-1-(2-methoxyethyl)ureido)methyl)pyridin-2-yl)thieno[3,2-b]pyridin-7-yloxy)-3-fluorophenyl)ureido)azetidine-1-carboxamide]	0.584
COCCN(Cc1ccc(-c2cc3nccc(Oc4ccc(NC(=O)NC5CN(C(C)=O)C5)cc4F)c3s2)nc1)C(C)=O [Compound 70, N-((6-(7-(4-(3-(1-Acetylazetidin-3-yl)ureido)-2-fluorophenoxy)thieno[3,2-b]pyridin-2-yl)pyridin-3-yl)methyl)-N-(2-methoxyethyl)acetamide]	0.075
CCOC(=O)C1CCCN(Cc2ccc(-c3cc4nccc(Oc5ccc(NC(=O)NC6COC6)cc5F)c4s3)nc2)C1 (stereo not shown) [Compound 73, Ethyl 1-((6-(7-(2-fluoro-4-(3-oxetan-3-ylureido)phenoxy)thieno[3,2-b]pyridin-2-yl)pyridin-3-yl)methyl)piperidine-3-carboxylate]	0.523
O=C(Nc1ccc(Oc2ccnc3cc(-c4ccc(CN5CCN(C(=O)CO)CC5)cn4)sc23)c(F)c1)NC1COC1 [Compound 88, 1-(3-Fluoro-4-(2-(5-((4-(2-hydroxyacetyl)piperazin-1-yl)methyl)pyridin-2-yl)thieno[3,2-b]pyridin-7-yloxy)phenyl)-3-(oxetan-3-yl)urea]	0.042

Next, values leading:

IC50 [µM]	SMILES
0.975	CN1CCN(Cc2ccc(-c3cc4nccc(Oc5ccc(NC(=O)NC6CN(C)C6)cc5F)c4s3)nc2)CC1 [Compound 19, 1-(3-Fluoro-4-(2-(5-((4-methylpiperazin-1-yl)methyl)pyridin-2-yl)thieno[3,2-b]pyridin-7-yloxy)phenyl)-3-(1-methylazetidin-3-yl)urea]
0.061	CC(=O)N1CC(NC(=O)Nc2ccc(Oc3ccnc4cc(-c5ccc(CN6CCC(NC(=O)CO)CC6)cn5)sc34)c(F)c2)C1 [Compound 43, N-(1-((6-(7-(4-(3-(1-Acetylazetidin-3-yl)ureido)-2-fluorophenox)thieno[3,2-b]pyridin-2-yl)pyridin-3-yl)methyl)piperidin-4-yl)-2-hydroxyacetamide]
0.07	CNC1CCN(Cc2ccc(-c3cc4nccc(Oc5ccc(NC(=O)NC6CN(C(C)=O)C6)cc5F)c4s3)nc2)CC1 [Compound 45]
0.137	CC(=O)N1CC(NC(=O)Nc2ccc(Oc3ccnc4cc(-c5ccc(CN6CC(NC(=O)OC(C)(C)C)C6)cn5)sc34)c(F)c2)C1 [Compound 46-A]
0.068	CC(=O)N1CC(NC(=O)Nc2ccc(Oc3ccnc4cc(-c5ccc(CN6CCN(C(=O)CO)CC6)cn5)sc34)c(F)c2)C1 [Compound 47-A]
0.032	CC(=O)N1CC(NC(=O)Nc2ccc(Oc3ccnc4cc(-c5ccc(CN6CCC(N(C)C(=O)CO)CC6)cn5)sc34)c(F)c2)C1 [Compound 47]
0.035	CN1CCN(Cc2ccc(-c3cc4nccc(Oc5ccc(NC(=O)NC6CN(C(=O)OC(C)(C)C)C6)cc5F)c4s3)nc2)CC1 [Compound 50, tert-Butyl 3-(3-(3-fluoro-4-(2-(5-((4-methylpiperazin-1-yl)methyl)pyridin-2-yl)thieno[3,2-b]pyridin-7-yloxy)phenyl)ureido)azetidine-1-carboxylate]
0.009	O=C(Nc1ccc(Oc2ccnc3cc(-c4ccc(CN5CCCC5=O)cn4)sc23)c(F)c1)NC1COC1 [Compound 93, 1-(3-Fluoro-4-(2-(5-((2-oxopyrrolidin-1-yl)methyl)pyridin-2-yl)thieno[3,2-b]pyridin-7-yloxy)phenyl)-3-(oxetan-3-yl)urea]
0.197	COCCN(Cc1ccc(-c2cc3nccc(Oc4ccc(NC(=O)NC5COC5)cc4F)c3s2)nc1)C(=O)OC(C)(C)C [Compound 104]
0.025	O=C(Nc1ccc(Oc2ccnc3cc(-c4ccc(CN5CCOC5=O)cn4)sc23)c(F)c1)NC1COC1 [Compound 105]

Source: patent US20130090327A1, “Inhibitors of Protein Tyrosine Kinase Activity” (METHYLGENE INC., priority 2011, published 2013)
